Data published in US9404916B2, “Use of a protein kinase inhibitor to detect immune cells, such as T cells” (University College Cardiff Consultants Limited, priority 2008, dated 2016).
Values joined by “and” are separate entries in the source; they are usually repeats but may differ in a detail not shown here. Identical values can stand only once. “Also recorded” adds a separate entry of the source.

How the values were obtained:
ILA1 CTL [1] = test: pMHCI tetramer staining of ILA1 CTL clone after PKI pre-treatment (flow cytometry); type: cell-based, human; conditions: for enhancement of tetramer staining after PKI pre-incubation: ILA1 CTL, data not shown
ILA1 CTL [2] = test: pMHCI tetramer on-rate experiment; conditions: dasatinib+tetramer; 50 nM 30 minutes 37° C.; HLA A2/hTERT540-548 tetramer
[3] = tested on: tetramer-positive CD3+CD8+ T-cells; type: cell-based, human
Description: . It is known that pMHCI tetramer-induced signaling can trigger cell death (Purbhoo et al., 2001; Xu et al., 2001; Guillaume et al., 2003; Cebecauer et al., 2005). Cell death induced by tetramer staining was assessed using the amine-reactive viability dye GrViD at the end of the staining procedure, which is spectrally distinct from ViViD. PBMC were stained with ViViD to identify and allow exclusion of dead and dying cells prior to the addition of pMHCI tetramer; GrVID staining was performed after pMHCI tetramer and surface antibody staining. Data were acquired on a BD LSR II flow cytometer and analyzed using FlowJo software. ViViD^±, CD14^+ and CD19^+ cells were excluded from the analysis and the frequency of GrViD-positive cells was assessed in the tetramer-positive CD3+CD8^+ T-cell populations. Representative flow profiles are shown here for CD^+T-cells specific for the HLA A2-restricted epitopes CMV pp65495-503 ([…](SEQ ID NO:3)) and EBV BMLFI259-267 ([…] SEQ ID NO:4)). […]. […] Stained PBMC were acquired on a BD LSR II (Becton Dickinson Immunocytometry Systems, San Jose, Calif., USA) and analyzed using FlowJo software (Tree Star, Inc., Ashland, Oreg., USA).

naïve murine F5 TCR CTL = test: H2-Db/[…] tetramer staining of F5 TCR transgenic splenocytes; type: cell-based, mouse; conditions: 50 nM dasatinib 30 minutes
Source text: C. […] Samples were washed with PBS before flow cytometric analysis.

[4] = Shelf-life of working solution; type: physicochemical; conditions: 100 nM in PBS
Description: Biological activity was tested in a cell death titration assay on BA/F3 bcr-abl cells as described previously (Magnusson et al., 2002). […] The 1 mM DMSO stock was diluted 1/10,000 in PBS on the day of experimentation to achieve a working solution of 100 nM; subsequent ½ dilution yielded a final concentration of 50 nM in cellular assays unless stated otherwise. The 100 nM working solution was always made up on the day of experimentation as the shelf-life of this solution is short (˜days). Staurosporine (Biomol), Lck inhibitor II (Calbiochem), genestein (calbiochem), herbimycin A (Calbiochem), PP2 (Calbiochem) and PP3 (Calbiochem) were dissolved and stored at −20° C. in DMSO. PKIs were dissolved in PBS prior to use and tested at concentrations of 1 nM, 3 nM, 5 nM, 10 nM, 20 nM, 50 nM, 100 nM, 250 nM, 500 nM and 1 μM.

Mel13 CTL = test: Antigen-induced TCR downregulation; conditions: 50 nM dasatinib; peptide-pulsed C1R-A2 B cells, 4 hours
[5] = tested on: HLA DR*0101-restricted CD4+ T-cell clone C6; conditions: 50 nM dasatinib 30 minutes
ILA1 CTL [6] = test: TCR and CD8 expression levels at the CTL cell surface; type: cell-based, human; conditions: 50 nM dasatinib 37° C.
T-cell clones = test: Recovery of responsiveness to antigen after drug removal; type: cell-based; conditions: T-cell clones incubated in 50 nM dasatinib for 24 hours; data not shown
[7] = tested on: antigen-specific CD8+ T-cells in PBMC; test: pMHCI tetramer staining of PBMC directly ex vivo; type: cell-based, human
[8] = tested on: CTL lines (Melan-A/Mart-1 26-35 and influenza matrix M1 58-66); test: Cognate tetramer staining of HLA A2-restricted CTL lines expanded from PBMC; type: cell-based, human; conditions: 50 nM dasatinib
T-cells = conditions: cited from earlier work
[9] = molecular target: IE6 TCR (on CTL clone IE6)

Q: With `O=c1c(-c2ccc(O)cc2)coc2cc(O)cc(O)c12` [genestein] as the compound, how does the “enhancement of tetramer staining after PKI pre-incubation” value (from here on “enhancement of tetramer staining”) (ILA1 CTL [1]) read?
A: no significant enhancement

Q: Which “enhancement of tetramer staining” value (ILA1 CTL [1]) does the source give for `CO[C@H]1[C@@H](OC)C[C@H](C)[C@@H](OC)C2=CC(=O)C=C(NC(=O)/C(C)=C/C=C\[C@H](OC)[C@@H](OC(N)=O)/C(C)=C/[C@@H]1C)C2=O` [herbimycin, herbimycin A] here?
A: no significant enhancement

Q: With `Cc1nc(Nc2ncc(C(=O)Nc3c(C)cccc3Cl)s2)cc(N2CCN(CCO)CC2)n1` [dasatinib, N-(2-chloro-6-methyl-phenyl)-2-(6-(4-(2-hydroxyethyl)-piperazin-1-yl)-2-methylpyrimidin-4-ylamino)thiazole-5-carboxamide] as the compound, how does the “tetramer on-rate, fast rate” value (ILA1 CTL [2]) read?
A: 0.42 min⁻¹

Q: What about the “tetramer on-rate, slow rate” value (ILA1 CTL [2]) of the same compound?
A: 0.06 min⁻¹

Q: And the “frequency of GrViD-positive dead cells within the tetramer-positive population” value [3]?
A: always lower; also recorded: reduced

Q: What about the “pMHCI tetramer staining of naïve murine F5 TCR CTL directly ex vivo” value (naïve murine F5 TCR CTL) of the same compound?
A: enhanced

Q: What about the “increase in pMHCI tetramer staining” value (ILA1 CTL [1]) of the same compound?
A: 60%

Q: What about the “increase in pMHCI tetramer staining intensity” value (ILA1 CTL [1]) of the same compound?
A: 89%

Q: What about the “shelf-life of 100 nM working solution” value [4] of the same compound?
A: short

Q: And the “antigen-induced TCR downregulation from the CTL surface” value (Mel13 CTL)?
A: block antigen-induced TCR downregulation

Q: And the “pMHCII tetramer staining of CD4+ T-cell clone” value [5]?
A: enhanced

Q: And the “time until significant increases in TCR and CD8 levels” value (ILA1 CTL [6])?
A: > 30 min

Q: What about the “time to regain responsiveness to antigen after drug removal” value (T-cell clones) of the same compound?
A: ≤ 1 h

Q: And the “pMHCI staining intensity and percentage of antigen-specific CD8+ T-cells” value [7]?
A: substantial increase

Q: What about the “increase in fluorescence intensity of T-cells that bound tetramer weakly” value [8] of the same compound?
A: > 20 fold

Q: And the “increase in staining intensity of all cognate CD8+ T-cells” value [8]?
A: at least 2 fold

Q: What about the “concentrations not toxic to T-cells in the short term” value (T-cells) of the same compound?
A: < 100 nM

Q: Which “enhancement of tetramer staining” value (ILA1 CTL [1]) does the source give for `Nc1ncnc2c1cnn2-c1ccccc1` [PP3] here?
A: no significant enhancement

Q: For “HLA A2/PPI15-24 tetramer (from UniProt P61769 21-119) (peptide-MHC)”, which MFI (Short term line) is on record?
A: 217 and 347

Q: For “HLA A2 presenting PPI15-24 peptide on pulsed target cells (from UniProt P61769 21-119) (peptide-MHC)”, which % TNFα-positive cells (intracellular cytokine staining, TNF-APC against SSC-Height, 6 h with PPI peptide) [9] is on record?
A: 30.9%

Q: With `CN[C@@H]1C[C@H]2O[C@@](C)([C@@H]1OC)n1c3ccccc3c3c4c(c5c6ccccc6n2c5c31)C(=O)NC4` [staurosporine] as the compound, how does the “enhancement of tetramer staining” value (ILA1 CTL [1]) read?
A: no significant enhancement

Q: For `CC(C)(C)n1nc(-c2ccc(Cl)cc2)c2c(N)ncnc21` [PP2], which “enhancement of tetramer staining” value (ILA1 CTL [1]) is on record?
A: moderate increase
